# In ChEMBL document CHEMBL1145018, “Molecular basis of the antitumor activities of 2-crotonyloxymethyl-2-cycloalkenones” (J Med Chem, 2003):
# Columns and labels:
# Format in all cases: functional, cell-based
# HT-29 [1] = experiment: Tested for cytotoxicity against HT-29 (MDR)cells; settings: Homo sapiens
# HT-29 [2] = experiment: Tested for cytotoxicity against HT-29 (wt)cells; settings: Homo sapiens
# B16 = experiment: Tested in vitro growth inhibition against B16 melanotic melanoma cells; settings: Mus musculus
SMILES,IC50 (HT-29 [1]),IC50 (HT-29 [2]),IC50 (B16)
C/C=C/C(=O)OCC1=CCCCC1=O,1800 nM,800 nM,41 nM
C/C=C/C(=O)OCC1=CCCC1=O,–,–,144 nM
C/C=C/C(=O)OCC1=CCCCCC1=O,–,–,29 nM
CC[C@]1(O)C[C@H]2CN(CCc3c([nH]c4ccccc34)[C@@](C(=O)OC)(c3cc4c(cc3OC)N(C=O)[C@H]3[C@@](O)(C(=O)OC)[C@H](OC(C)=O)[C@]5(CC)C=CCN6CC[C@]43[C@@H]65)C2)C1 [VINCRISTINE],17 nM,1 nM,–
